molecular target: T1, human Farnesoid X Receptor (FXR) ligand binding domain (GST-FXR LBD) (Homo sapiens, UniProt Q96RI1); assay: Human GST-FXR LBD co-activator interaction assay (HTRF); type: biochemical; conditions: GST-FXR LBD / biotin-SRC-1 peptide FRET; response relative to GW4064; read-out: FXR Co-activator interaction assay (EC50)
T1 construct: purchased Invitrogen
T1 sequence (Q96RI1 193-472 isoform Q96RI1-2): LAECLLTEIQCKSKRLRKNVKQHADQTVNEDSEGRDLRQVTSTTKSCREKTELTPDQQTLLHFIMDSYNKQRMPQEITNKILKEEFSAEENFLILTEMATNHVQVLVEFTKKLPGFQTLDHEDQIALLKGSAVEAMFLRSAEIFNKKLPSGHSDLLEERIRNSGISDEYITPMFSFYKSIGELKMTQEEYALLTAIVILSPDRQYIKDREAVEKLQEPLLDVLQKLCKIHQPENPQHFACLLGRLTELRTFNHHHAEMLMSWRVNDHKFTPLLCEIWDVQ
Description: Human GST-FXR LBD Co-activator interaction Assay. The FXR HTRF assay is a biochemical assay measuring the interaction between FXR and a coactivator protein (SRC1). The ligand-induced interaction with a coactivator protein is a critical step in transcriptional activation by FXR. Thus, this is an assay designed to measure FXR agonist activity of compounds.
The ligand-dependent interaction between GST-FXR LBD and a peptide derived from Steroid Receptor Coactivator-1 (SRC-1) was monitored by Fluorescence Resonance Energy Transfer (FRET). […] Test compounds (in DMSO solution) and detection reagents (anti-GST-Cryptate labeled antibody and Streptavidin-XL665 conjugate; CisBio) were added in assay buffer containing 50 mM KF.
A negative control (without Streptavidin-XL665) was run with each assay and represented the background fluorescence. A reference FXR agonist, GW4064, was included in each experiment as positive control. The efficacy of each test compound was compared to that of GW4064. At each concentration, the relative activity of the test compound was expressed as Response %=(Rsample−RDMSO)/(Rpositive−RDMSO), where Rsample is the HTRF response (expressed in Delta F %) for the test compound, Rpositive is the maximal response for GW4064 at saturating concentrations, and RDMSO is the response for DMSO control. The EC50 values were calculated using GraphPad Prism (GraphPad Software) using non-linear regression curve fit (log(agonist) vs. response—variable slope (four parameters)).

Row | SMILES | EC50 [nM]
1 | CCOC(=O)c1ccc2nc(N3C4CC[C@H]3CC(OCc3c(-c5ccccc5OC(F)(F)F)noc3C3CC3)C4)sc2c1 (stereo partly drawn) [Example 3A, ethyl 2-(3-((5-cyclopropyl-3-(2-(trifluoromethoxy)phenyl)isoxazol-4-yl)methoxy)-8-azabicyclo[3.2.1]octan-8-yl)benzo[d]thiazole-6-carboxylate] | 20
2 | O=C(O)c1ccc2nc(N3C4CC[C@H]3CC(OCc3c(-c5ccccc5OC(F)(F)F)noc3C3CC3)C4)sc2c1 (stereo partly drawn) [Example 3B] | 0.74
3 | CC(C)(O)c1ccc2nc(N3C4CC[C@H]3CC(OCc3c(-c5ccccc5OC(F)(F)F)noc3C3CC3)C4)sc2c1 (stereo partly drawn) [Example 4, 2-(2-(3-((5-cyclopropyl-3-(2-(trifluoromethoxy)phenyl)isoxazol-4-yl)methoxy)-8-azabicyclo[3.2.1]octan-8-yl)benzo[d]thiazol-6-yl)propan-2-ol] | 22
4 | NC(=O)c1cc(F)c2nc(N3C4CC[C@H]3C[C@H](OCc3c(-c5ccccc5OC(F)(F)F)noc3C3CC3)C4)sc2c1 [Example 5-1] | 7.6
5 | NC(=O)c1ccc(N2C3CC[C@H]2C[C@H](OCc2c(-c4ccccc4OC(F)(F)F)noc2C2CC2)C3)nc1 [Example 5-2] | 3.8
6 | Cc1cc(C(N)=O)nc(N2C3CC[C@H]2C[C@H](OCc2c(-c4ccccc4OC(F)F)noc2C2CC2)C3)n1 [Example 5-3] | 20
7 | CCOC(=O)c1ccc2nc(N3C4CC[C@H]3C[C@H](OCc3c(-c5ccccc5C(F)(F)F)noc3C3CC3)C4)sc2c1 [Example 6-1A] | 63
8 | O=C(O)c1ccc2nc(N3C4CC[C@H]3C[C@H](OCc3c(-c5ccccc5C(F)(F)F)noc3C3CC3)C4)sc2c1 [Example 6-1B] | 0.67
9 | CCOC(=O)c1ccc2nc(N3C4CC[C@H]3C[C@H](OCc3c(-c5ccccc5OC(F)F)noc3C3CC3)C4)sc2c1 [Example 6-2A] | 51
10 | O=C(O)c1ccc2nc(N3C4CC[C@H]3C[C@H](OCc3c(-c5ccccc5OC(F)F)noc3C3CC3)C4)sc2c1 [Example 6-2B] | 0.36
11 | COC(=O)c1cc(F)c2nc(N3C4CC[C@H]3C[C@H](OCc3c(-c5ccccc5OC(F)F)noc3C3CC3)C4)sc2c1 [Example 6-3A] | 12
12 | O=C(O)c1cc(F)c2nc(N3C4CC[C@H]3C[C@H](OCc3c(-c5ccccc5OC(F)F)noc3C3CC3)C4)sc2c1 [Example 6-3B] | 0.27
13 | COc1cc(C(=O)O)cc2sc(N3C4CC[C@H]3C[C@H](OCc3c(-c5ccccc5OC(F)F)noc3C3CC3)C4)nc12 [Example 6-4] | 0.18
14 | CCOC(=O)c1ccc2nc(N3C4CC[C@H]3C[C@H](OCc3c(-c5c(F)cccc5F)noc3C3CC3)C4)sc2c1 [Example 6-5A] | 3.8
15 | O=C(O)c1ccc2nc(N3C4CC[C@H]3C[C@H](OCc3c(-c5c(F)cccc5F)noc3C3CC3)C4)sc2c1 [Example 6-5B] | 5.6
16 | COC(=O)c1cc(OC)c2nc(N3C4CC[C@H]3C[C@H](OCc3c(-c5c(F)cccc5F)noc3C3CC3)C4)sc2c1 [Example 6-6A] | 14
17 | COc1cc(C(=O)O)cc2sc(N3C4CC[C@H]3C[C@H](OCc3c(-c5c(F)cccc5F)noc3C3CC3)C4)nc12 [Example 6-6B] | 0.3
18 | COC(=O)c1cc(F)c2nc(N3C4CC[C@H]3C[C@H](OCc3c(-c5c(F)cccc5F)noc3C3CC3)C4)sc2c1 [Example 6-7A] | 14
19 | O=C(O)c1cc(F)c2nc(N3C4CC[C@H]3C[C@H](OCc3c(-c5c(F)cccc5F)noc3C3CC3)C4)sc2c1 [Example 6-7B] | 0.58
20 | O=C(O)c1cc(F)c2nc(N3C4CC[C@H]3C[C@H](OCc3c(C5CCCCC5C(F)(F)F)noc3C3CC3)C4)sc2c1 (stereo partly drawn) [Example 8-1] | 4
21 | COc1cc(C(=O)O)cc2sc(N3C4CC[C@H]3C[C@H](OCc3c(C5CCCCC5C(F)(F)F)noc3C3CC3)C4)nc12 (stereo partly drawn) [Example 8-2] | 2.4
22 | CC1(C)CCC(c2noc(C3CC3)c2CO[C@@H]2CC3CC[C@@H](C2)N3c2nc3ccc(C(=O)O)cc3s2)CC1 [Example 8-3] | 18
23 | CC1(C)CCC(c2noc(C3CC3)c2CO[C@@H]2CC3CC[C@@H](C2)N3c2nc3c(F)cc(C(=O)O)cc3s2)CC1 [Example 8-4] | 8.9

Row | SMILES | EC50 [nM]
24 | O=C(O)c1cnc(N2C3CC[C@H]2C[C@H](OCc2c(C4CCCCC4C(F)(F)F)noc2C2CC2)C3)cn1 (stereo partly drawn) [Example 8-5B] | 110
25 | Cc1cc(C(=O)O)nc(N2C3CC[C@H]2C[C@H](OCc2c(C4CCCCC4C(F)(F)F)noc2C2CC2)C3)n1 (stereo partly drawn) [Example 8-6B] | 100
26 | Cc1cc(C(=O)O)nc(N2C3CC[C@H]2C[C@H](OCc2c(C4CCCCC4)noc2C2CC2)C3)n1 [Example 8-7B] | 130
27 | O=C(O)c1cc(F)c2nc(N3C4CC[C@H]3C[C@H](OCc3c(C5CCCCC5)noc3C3CC3)C4)sc2c1 [Example 9-1] | 5
28 | COc1cc(C(=O)O)cc2sc(N3C4CC[C@H]3C[C@H](OCc3c(C5CCCCC5)noc3C3CC3)C4)nc12 [Example 9-2] | 11
29 | O=C(O)c1ccc2nc(N3C4CC[C@H]3C[C@H](OCc3c(C5CC5c5ccccc5)noc3C3CC3)C4)sc2c1 (stereo partly drawn) [Example 10B, 2-(3-((5-cyclopropyl-3-(2-phenylcyclopropyl)isoxazol-4-yl)methoxy)-8-azabicyclo[3.2.1]octan-8-yl)benzo[d]thiazole-6-carboxylic acid] | 98
30 | CC1CC1c1noc(C2CC2)c1CO[C@@H]1CC2CC[C@@H](C1)N2c1nc2c(F)cc(C(=O)O)cc2s1 (stereo partly drawn) [Example 12-1] | 25
31 | O=C(O)c1cc(F)c2nc(N3C4CC[C@H]3C[C@H](OCc3c(C5CC5)noc3C3CC3)C4)sc2c1 [Example 12-2] | 40
32 | COc1cc(C(=O)O)cc2sc(N3C4CC[C@H]3C[C@H](OCc3c(C5CC5)noc3C3CC3)C4)nc12 [Example 12-3] | 40
33 | O=C(O)c1ccc2nc(N3C4CC[C@H]3C[C@H](OCc3c(C5CCC6(CC5)CC6)noc3C3CC3)C4)sc2c1 [Example 13-1B] | 1.3
34 | O=C(O)c1cc(F)c2nc(N3C4CC[C@H]3C[C@H](OCc3c(C5CCC6(CC5)CC6)noc3C3CC3)C4)sc2c1 [Example 13-2B] | 0.53
35 | COc1cc(C(=O)O)cc2sc(N3C4CC[C@H]3C[C@H](OCc3c(C5CCC6(CC5)CC6)noc3C3CC3)C4)nc12 [Example 13-3B] | 0.67
36 | Cc1cc(C(=O)O)nc(N2C3CC[C@H]2C[C@H](OCc2c(C4CCC5(CC4)CC5)noc2C2CC2)C3)n1 [Example 14] | 35
37 | O=C(O)CNC(=O)c1ccc2nc(N3C4CC[C@H]3C[C@H](OCc3c(-c5ccccc5OC(F)(F)F)noc3C3CC3)C4)sc2c1 [Example 15-1B, 2-(2-(3-((5-cyclopropyl-3-(2-(trifluoromethoxy)phenyl)isoxazol-4-yl)methoxy)-8-azabicyclo[3.2.1]octan-8-yl)benzo[d]thiazole-6-carboxamido)acetic acid] | 0.6
38 | O=C(O)CNC(=O)c1cc(F)c2nc(N3C4CC[C@H]3C[C@H](OCc3c(-c5ccccc5OC(F)(F)F)noc3C3CC3)C4)sc2c1 [Example 15-2] | 0.5
39 | O=C(O)CNC(=O)c1ccc(N2C3CC[C@H]2C[C@H](OCc2c(-c4ccccc4OC(F)(F)F)noc2C2CC2)C3)nc1 [Example 15-3] | 17
40 | O=C(O)CNC(=O)c1cc(F)c2nc(N3C4CC[C@H]3C[C@H](OCc3c(-c5ccccc5C(F)(F)F)noc3C3CC3)C4)sc2c1 [Example 15-4] | 0.8
41 | O=C(NCCS(=O)(=O)O)c1ccc2nc(N3C4CC[C@H]3C[C@H](OCc3c(-c5ccccc5OC(F)(F)F)noc3C3CC3)C4)sc2c1 [Example 16-1, 2-(2-(3-((5-cyclopropyl-3-(2-(trifluoromethoxy)phenyl)isoxazol-4-yl)methoxy)-8-azabicyclo[3.2.1]octan-8-yl)benzo[d]thiazole-6-carboxamido)ethanesulfonic acid] | 0.6
42 | O=C(NCCS(=O)(=O)O)c1cc(F)c2nc(N3C4CC[C@H]3C[C@H](OCc3c(-c5ccccc5OC(F)(F)F)noc3C3CC3)C4)sc2c1 [Example 16-2] | 0.4
43 | O=C(NCCS(=O)(=O)O)c1cc(F)c2nc(N3C4CC[C@H]3C[C@H](OCc3c(-c5ccccc5C(F)(F)F)noc3C3CC3)C4)sc2c1 [Example 16-3] | 1.2
44 | O=C(NCCS(=O)(=O)O)c1ccc(N2C3CC[C@H]2C[C@H](OCc2c(-c4ccccc4OC(F)(F)F)noc2C2CC2)C3)nc1 [Example 16-4] | 9
45 | COC(=O)c1cnc(N2C3CC[C@H]2C[C@H](OCc2c(-c4ccccc4OC(F)(F)F)noc2C2CC2)C3)c(Br)c1 [Example 18-1, Methyl 5-bromo-6-((1S,3R)-3-((5-cyclopropyl-3-(2-(trifluoromethoxy)phenyl)isoxazol-4-yl)methoxy)-8-azabicyclo[3.2.1]octan-8-yl)nicotinate] | 9

Source: patent US9150568B2, “Compositions and methods for modulating FXR” (NOVARTIS AG, priority 2010, dated 2015)
